These are literature values, as cited in US20040062779A1, “Dermatologic composition using ultra-fine/micronized 1-ascorbic acid and other antioxidant ingredients in a stabilized anhydrous vehicle” (priority 2002, published 2004).

This data set deals with collagen synthesis. The following applies: in-vitro; Pinnell, Yale J. Biol. Med. 58:554 (1985).

Each structure is given as a SMILES string.

`O=C1O[C@H]([C@@H](O)CO)C(O)=C1O` [ascorbic acid]: the collagen synthesis result is recorded as “stimulates collagen synthesis”.
